PubChem BioAssay (NCI)
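Compound exposure: 48 hours, 5 concentrations, 96-well plates. TGI: total growth inhibition.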

Assays:
Assay in all cases: inhibition of tumour cell growth, NCI panel, 48 h
A498 renal = system: A498 renal
ACHN renal = system: ACHN renal
BT-549 breast = system: BT-549 breast
CAKI-1 renal = system: CAKI-1 renal
EKVX NSCLC = system: EKVX NSCLC
HCC-2998 colon = system: HCC-2998 colon
HCT-15 colon = system: HCT-15 colon
K-562 leukemia = system: K-562 leukemia
KM12 colon = system: KM12 colon
MALME-3M melanoma = system: MALME-3M melanoma
MCF7 breast = system: MCF7 breast
MDA-MB-231 breast = system: MDA-MB-231 breast
MDA-MB-435 = system: MDA-MB-435
MOLT-4 leukemia = system: MOLT-4 leukemia
SF-268 CNS = system: SF-268 CNS
SK-MEL-2 melanoma = system: SK-MEL-2 melanoma
SK-OV-3 ovarian = system: SK-OV-3 ovarian
TK-10 renal = system: TK-10 renal
U251 CNS = system: U251 CNS

| Compound | TGI (A498 renal) [µM] | TGI (ACHN renal) [µM] | TGI (BT-549 breast) [µM] | TGI (CAKI-1 renal) [µM] | TGI (EKVX NSCLC) [µM] | TGI (HCC-2998 colon) [µM] | TGI (HCT-15 colon) [µM] | TGI (K-562 leukemia) [µM] | TGI (KM12 colon) [µM] | TGI (MALME-3M melanoma) [µM] | TGI (MCF7 breast) [µM] | TGI (MDA-MB-231 breast) [µM] | TGI (MDA-MB-435) [µM] | TGI (MOLT-4 leukemia) [µM] | TGI (SF-268 CNS) [µM] | TGI (SK-MEL-2 melanoma) [µM] | TGI (SK-OV-3 ovarian) [µM] | TGI (TK-10 renal) [µM] | TGI (U251 CNS) [µM] |
| --- | --- | --- | --- | --- | --- | --- | --- | --- | --- | --- | --- | --- | --- | --- | --- | --- | --- | --- | --- |
| CC[C@H](C)[C@H](NC(=O)[C@H](Cc1ccc(O)cc1)NCC(F)(F)F)C(=O)OC(C)(C)C | 14.8 | 13.9 | 34.7 | 15.7 | 15.1 | 15.8 | 34.2 | 27.2 | 18.7 | 22.1 | 19.4 | 15.5 | 14.8 | 22 | 24.6 | 13.9 | 17.3 | 15.4 | 13.7 |
| C=CC(Br)(CBr)CCC1OC1(C)C (centres undefined) | 40.2 | 34.1 | 30.2 | 36.4 | 38.5 | 33.1 | – | > 100 | 30.9 | 38.2 | 29.9 | 24.6 | 31.3 | 47.8 | 31.2 | 30.6 | 51.7 | 36.2 | 30.7 |
| Brc1ccc2[nH]cc([C@@H]3CN[C@@H](c4c[nH]c5ccc(Br)cc45)CN3)c2c1 | 28.7 | 9.59 | 30.8 | 21.9 | 20.3 | 11.6 | 24.8 | 3.74 | 7.06 | 29.6 | 11.6 | 14.2 | 11.9 | 4.51 | 27.8 | 27.8 | 25.7 | 16.4 | 11.2 |
| CO[C@@H]1C[C@H]2[C@@H]3CC[C@H]([C@@H](C)COC(C)=O)[C@@]3(C)CC[C@@H]2[C@@]2(C)CC[C@H]3C[C@]312 | 35.6 | 30.2 | 27.2 | 21.4 | 28 | 28.6 | 27 | 27.7 | 23.2 | 29.4 | 23.6 | 24.3 | 29.2 | 32.3 | 40.6 | – | – | – | 25.8 |
| O=C(OC1C#CCSCC#C/C=C\1)c1cnc2ccccc2n1 (centres undefined) | > 100 | > 100 | > 100 | – | > 100 | > 100 | > 100 | 65.4 | – | > 100 | > 100 | > 100 | > 100 | – | > 100 | > 100 | > 100 | > 100 | > 100 |
| C=CC(C)(C)c1c(OC)oc2ccc(OC)c(C)c2c1=O | > 100 | > 100 | > 100 | > 100 | > 100 | > 100 | > 100 | > 100 | > 100 | > 100 | > 100 | > 100 | > 100 | > 100 | > 100 | > 100 | > 100 | > 100 | > 100 |
| Cc1ccc(C2=NN=C3C(c4ccccc4)=Nc4ccccc4N3C2)cc1 | > 100 | > 100 | > 100 | > 100 | > 42.6 | > 100 | > 100 | > 100 | > 100 | 47.2 | > 89.3 | > 100 | > 100 | > 35.5 | > 49.4 | > 100 | 85.7 | 1.78 | > 81.1 |
| N=C(N)SCCSC(=N)N | > 100 | > 100 | > 100 | > 100 | > 100 | > 100 | > 100 | > 100 | > 100 | > 100 | > 100 | > 100 | > 100 | > 100 | > 100 | – | > 100 | > 100 | > 100 |
| CC(C)(Cl)C(Br)CCC(=CCBr)CBr (mixture of isomers) | 18.3 | 15.6 | 7.5 | – | 62 | 14 | 3.75 | 4.18 | 5.93 | 4.74 | 8.42 | 3.51 | 3.56 | 2.88 | 4.99 | 22.9 | 29 | 12.5 | 4.09 |
| CNC(=O)Nn1c(SC)nc2ccccc21 | > 100 | > 100 | > 100 | > 100 | > 100 | > 100 | > 100 | > 100 | > 100 | > 100 | > 100 | > 100 | > 100 | > 100 | > 100 | > 100 | > 100 | > 100 | > 100 |
| COc1cc(/C=C2\N=C(c3ccccc3)N(c3ccc4c(c3)Sc3cc(N5C(=O)/C(=C/c6cc(OC)c(OC)c(OC)c6)N=C5c5ccccc5)ccc3N4)C2=O)cc(OC)c1OC | 43.1 | 36.4 | 55.6 | 37.1 | 54.6 | 50.6 | > 100 | 48.4 | > 100 | 41.1 | 37.1 | 67.8 | 33.6 | > 100 | 37.5 | 36.5 | 38.1 | 30.9 | 44.2 |
| N#Cc1nc(N)c(C#N)[nH]1 | > 100 | > 100 | > 100 | > 100 | > 100 | > 100 | > 100 | > 100 | > 100 | > 100 | > 100 | > 100 | > 100 | > 100 | > 100 | > 100 | > 100 | > 100 | > 100 |
